Reference: PubChem BioAssay (NCI)
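Test compounds were applied to cells in 96-well plates for 48 hours at 5 doses. TGI is the concentration that stops growth completely.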

What follows are molecules tested on HT29 colon (assay: NCI anticancer screen, dose series, 48 h).

| Compound | TGI [µM] |
| --- | --- |
| COc1ccc(C2OC(c3ccncc3)=NN2C)cc1F (stereo not given) | > 100 |
| O=C(/C=C/c1ccccc1)Oc1ccc(C(=O)/C=C/c2ccccc2)cc1 | 17.7 |
| COC(=O)C(Cc1ccc2c(c1)CCC2)Cc1ccc2c(c1)CCC2 | > 100 |
| Cc1nc(C)c(C(=O)NNC(=O)C[N+](C)(C)C)cc1C(=O)NNC(=O)C[N+](C)(C)C | > 100 |
| CNc1cc2c(c3ccccc13)C(CCl)CN2C(=O)c1cc2cc(OC)c(OC)c(OC)c2[nH]1 (stereo not given) | 0.168 |
| O=C(O)CN1CCN2CCCCCN(CC1)CCN(CC(=O)O)CC2 | > 100 |
| C=C(C(=O)OCC)C(=O)OCC | > 100 |
| Cc1ccc(S(=O)(=O)n2c3c(c4ccccc42)CCN2C[C@H]([C@H](C)Br)CC[C@@H]32)cc1 | > 100 |
| O=c1oc2cc(O)ccc2c(O)c1C(c1ccccc1)c1c(O)c2ccc(O)cc2oc1=O | > 100 |
| CC(C)c1cc2c(c(O)c1O)[C@@]1(C(=O)O)CCCC(C)(C)[C@@H]1CC2 | 30.7 |
| COC1=CC(=O)c2c(c(-c3nc(C)cs3)cn2C)C1=O | 21 |
| Cc1c(O)nc(-n2[nH]c3c(c2=O)CCCC3)[nH]c1=O | > 100 |
| CCOS(C)(=O)=O | > 100 |
| CC(C)SC(=S)Sc1c(Cl)c(Cl)nc(Cl)c1Cl | 12.5 |
| O=C(O)CN1CCNCCN(CC(=O)O)CCN(CC(=O)O)CCNCC1 | > 100 |
| CC(NC(=O)Cc1ccccc1)NC(=O)C(C)C(=O)Nc1ccccc1 (stereo not given) | > 100 |
| CCCCCCCCCCCC[S+](C)C | 18.3 |

These molecules were tested on MALME-3M melanoma (assay: NCI anticancer screen, dose series, 48 h).

| Compound | TGI [µM] |
| --- | --- |
| CC1=CCC([C@@](C)(O)CCCC(C)(C)N=C=S)CC1 (stereo not given in full) | 28.3 |
| CCN1CN(c2ccccc2)C2(CCN(CC3COc4ccccc4O3)CC2)C1=O (stereo not given) | 36 |
| C=C1C(=O)CC2C1CC(=O)/C(C)=C/CCC(C)(O)C2O (stereo not given) | 3.01 |
| O=C1C=C/C(=N\N=C(c2ccccc2)c2ccccc2)O1 | > 10 |
| N[C@@H](Cc1ccccc1)C(=O)N1CCC[C@@H]1P(=O)(Oc1ccccc1)Oc1ccccc1 | > 100 |
| O=c1[nH][nH]c(=O)n1CCCCCCn1c(=O)[nH][nH]c1=O | > 100 |
| C[C@H](CCC(=O)O)[C@H]1CC[C@H]2[C@@H]3C(=O)C[C@@H]4C[C@H](O)CC[C@]4(C)[C@H]3C[C@H](O)[C@]12C | > 100 |
| CC(=O)NC1C(OCc2ccccc2)OC(CO)C(O)C1OCC(=O)N[C@@H](C)C(=O)N[C@H](CCC(=O)NCCCNc1c2ccccc2nc2cccc([N+](=O)[O-])c12)C(N)=O (stereo not given in full) | 0.129 |
| COc1ccc(-c2nc(SCC(=O)NNC(=S)Nc3ccccc3)[nH]c2-c2ccc(OC)cc2)cc1 | > 100 |
| O=C(O)c1ccccc1CC(Cc1ccc2c(c1)CCC2)C(=O)O (stereo not given) | > 100 |
| Cn1c(SCc2ccc(F)cc2)nnc1C12CC3CC(CC(C3)C1)C2 | 60.8 |
| COC(=O)/C=C\C(C#N)(C#N)N=Cc1ccc(C)cc1 | 5.5 |
| CC(c1ccccc1)N1CCN(C(C)c2ccccc2)CC1 (stereo not given) | > 100 |
| CCCCCC#CCOC(=O)C(=[N+]=[N-])P(=O)(c1ccccc1)c1ccccc1 | > 10 |
| COc1ccc(N2C(=O)CC(=O)N(NC(=O)C(C)Oc3ccccc3C)C2=S)cc1 (stereo not given) | > 100 |
| COc1cc(OC)cc(C(=O)CC(=O)c2cc(OC)cc(OC)c2)c1 | > 100 |
| COc1ccc(C2c3cn[nH]c3CC3CCCCC32)cc1 (stereo not given) | 38.4 |
| O=C1OC(C2Cc3ccc4ccccc4c3C2=O)c2ccccc21 (stereo not given) | > 100 |

| Compound | TGI [µM] |
| --- | --- |
| C/C(=N\N=C1/C(=O)OC(c2ccccc2)=C1C(=O)c1ccccc1)c1ccc([N+](=O)[O-])cc1 | > 100 |
| O=C(O)[C@H]1CCCN1CP(=O)(O)CN1CCC[C@@H]1C(=O)O | > 100 |
| O=S(=O)(O)C(CO)c1ccccc1 (stereo not given) (tested in a mixture with another compound) | > 100 |
| O=C1c2ccccc2C(=O)N1n1c(Cc2ccc([N+](=O)[O-])cc2)n[nH]c1=O | > 100 |
| COc1ccc(C2OC(c3ccncc3)=NN2C)cc1F (stereo not given) | > 100 |
| NS(=O)(=O)c1ccc(NC(=S)/N=C/C2=C(O)c3ccccc3C2=O)cc1 | > 100 |
| O=C(O)CN1CCN2CCCCCN(CC1)CCN(CC(=O)O)CC2 | > 100 |
| C=C(C(=O)OCC)C(=O)OCC | > 100 |
| Cc1ccc(S(=O)(=O)n2c3c(c4ccccc42)CCN2C[C@H]([C@H](C)Br)CC[C@@H]32)cc1 | > 100 |
| O=c1oc2cc(O)ccc2c(O)c1C(c1ccccc1)c1c(O)c2ccc(O)cc2oc1=O | > 100 |
| Cc1c(O)nc(-n2[nH]c3c(c2=O)CCCC3)[nH]c1=O | > 100 |
| CCCNc1ncnc2c1ncn2C | > 100 |
| CCOS(C)(=O)=O | > 100 |
| CC(C)SC(=S)Sc1c(Cl)c(Cl)nc(Cl)c1Cl | 30.1 |
| O=C(O)CN1CCNCCN(CC(=O)O)CCN(CC(=O)O)CCNCC1 | > 100 |
| CC(NC(=O)Cc1ccccc1)NC(=O)C(C)C(=O)Nc1ccccc1 (stereo not given) | > 100 |
| CCCCCCCCCCCC[S+](C)C | 22.4 |

The molecules below were run on MDA-N (assay: NCI anticancer screen, dose series, 48 h).

| Compound | TGI [µM] |
| --- | --- |
| CC1=CCC([C@@](C)(O)CCCC(C)(C)N=C=S)CC1 (stereo not given in full) | 32.4 |
| CCN1CN(c2ccccc2)C2(CCN(CC3COc4ccccc4O3)CC2)C1=O (stereo not given) | 6.54 |
| C=C1C(=O)CC2C1CC(=O)/C(C)=C/CCC(C)(O)C2O (stereo not given) | 2.86 |
| O=C1C=C/C(=N\N=C(c2ccccc2)c2ccccc2)O1 | > 10 |
| N[C@@H](Cc1ccccc1)C(=O)N1CCC[C@@H]1P(=O)(Oc1ccccc1)Oc1ccccc1 | > 100 |
| O=c1[nH][nH]c(=O)n1CCCCCCn1c(=O)[nH][nH]c1=O | > 100 |
| C[C@H](CCC(=O)O)[C@H]1CC[C@H]2[C@@H]3C(=O)C[C@@H]4C[C@H](O)CC[C@]4(C)[C@H]3C[C@H](O)[C@]12C | > 100 |
| CC(=O)NC1C(OCc2ccccc2)OC(CO)C(O)C1OCC(=O)N[C@@H](C)C(=O)N[C@H](CCC(=O)NCCCNc1c2ccccc2nc2cccc([N+](=O)[O-])c12)C(N)=O (stereo not given in full) | 0.102 |
| COc1ccc(-c2nc(SCC(=O)NNC(=S)Nc3ccccc3)[nH]c2-c2ccc(OC)cc2)cc1 | 50.3 |
| O=C(O)c1ccccc1CC(Cc1ccc2c(c1)CCC2)C(=O)O (stereo not given) | > 100 |
| Cn1c(SCc2ccc(F)cc2)nnc1C12CC3CC(CC(C3)C1)C2 | > 100 |
| COC(=O)/C=C\C(C#N)(C#N)N=Cc1ccc(C)cc1 | 14 |
| CC(c1ccccc1)N1CCN(C(C)c2ccccc2)CC1 (stereo not given) | > 100 |
| CCCCCC#CCOC(=O)C(=[N+]=[N-])P(=O)(c1ccccc1)c1ccccc1 | > 10 |
| COc1ccc(C(=O)/C=C/c2ccc(OCCCOc3ccc(/C=C/C(=O)c4ccc(OC)cc4)cc3)cc2)cc1 | > 100 |
| COc1ccc(N2C(=O)CC(=O)N(NC(=O)C(C)Oc3ccccc3C)C2=S)cc1 (stereo not given) | > 100 |
| COc1cc(OC)cc(C(=O)CC(=O)c2cc(OC)cc(OC)c2)c1 | > 100 |
| COc1ccc(C2c3cn[nH]c3CC3CCCCC32)cc1 (stereo not given) | 27.9 |
| O=C1OC(C2Cc3ccc4ccccc4c3C2=O)c2ccccc21 (stereo not given) | > 100 |
| C/C(=N\N=C1/C(=O)OC(c2ccccc2)=C1C(=O)c1ccccc1)c1ccc([N+](=O)[O-])cc1 | > 100 |
| O=C(O)[C@H]1CCCN1CP(=O)(O)CN1CCC[C@@H]1C(=O)O | > 100 |

| Compound | TGI [µM] |
| --- | --- |
| O=S(=O)(O)C(CO)c1ccccc1 (stereo not given) (tested in a mixture with another compound) | > 100 |
| O=C1c2ccccc2C(=O)N1n1c(Cc2ccc([N+](=O)[O-])cc2)n[nH]c1=O | > 100 |
| COc1ccc(C2OC(c3ccncc3)=NN2C)cc1F (stereo not given) | > 100 |
| O=C(/C=C/c1ccccc1)Oc1ccc(C(=O)/C=C/c2ccccc2)cc1 | 12.6 |
| COC(=O)C(Cc1ccc2c(c1)CCC2)Cc1ccc2c(c1)CCC2 | > 100 |
| NS(=O)(=O)c1ccc(NC(=S)/N=C/C2=C(O)c3ccccc3C2=O)cc1 | > 100 |
| Cc1nc(C)c(C(=O)NNC(=O)C[N+](C)(C)C)cc1C(=O)NNC(=O)C[N+](C)(C)C | > 100 |
| CNc1cc2c(c3ccccc13)C(CCl)CN2C(=O)c1cc2cc(OC)c(OC)c(OC)c2[nH]1 (stereo not given) | 0.00856 |
| O=C(O)CN1CCN2CCCCCN(CC1)CCN(CC(=O)O)CC2 | > 100 |
| C=C(C(=O)OCC)C(=O)OCC | > 100 |
| Cc1ccc(S(=O)(=O)n2c3c(c4ccccc42)CCN2C[C@H]([C@H](C)Br)CC[C@@H]32)cc1 | > 100 |
| O=c1oc2cc(O)ccc2c(O)c1C(c1ccccc1)c1c(O)c2ccc(O)cc2oc1=O | > 100 |
| CC(C)c1cc2c(c(O)c1O)[C@@]1(C(=O)O)CCCC(C)(C)[C@@H]1CC2 | > 100 |
| COC1=CC(=O)c2c(c(-c3nc(C)cs3)cn2C)C1=O | 2.7 |
| Cc1c(O)nc(-n2[nH]c3c(c2=O)CCCC3)[nH]c1=O | > 100 |
| CCCNc1ncnc2c1ncn2C | > 100 |
| CCOS(C)(=O)=O | > 100 |
| CC(C)SC(=S)Sc1c(Cl)c(Cl)nc(Cl)c1Cl | 11.1 |
| O=C(O)CN1CCNCCN(CC(=O)O)CCN(CC(=O)O)CCNCC1 | > 100 |
| CC(NC(=O)Cc1ccccc1)NC(=O)C(C)C(=O)Nc1ccccc1 (stereo not given) | > 100 |
| CCCCCCCCCCCC[S+](C)C | 15.5 |

Each molecule was assayed on NCI-H23 lung (assay: NCI anticancer screen, dose series, 48 h).

| Compound | TGI [µM] |
| --- | --- |
| CC1=CCC([C@@](C)(O)CCCC(C)(C)N=C=S)CC1 (stereo not given in full) | 38.5 |
| CCN1CN(c2ccccc2)C2(CCN(CC3COc4ccccc4O3)CC2)C1=O (stereo not given) | > 100 |
| C=C1C(=O)CC2C1CC(=O)/C(C)=C/CCC(C)(O)C2O (stereo not given) | 20.6 |
| O=C1C=C/C(=N\N=C(c2ccccc2)c2ccccc2)O1 | > 10 |
| N[C@@H](Cc1ccccc1)C(=O)N1CCC[C@@H]1P(=O)(Oc1ccccc1)Oc1ccccc1 | > 100 |
| O=c1[nH][nH]c(=O)n1CCCCCCn1c(=O)[nH][nH]c1=O | > 100 |
| C[C@H](CCC(=O)O)[C@H]1CC[C@H]2[C@@H]3C(=O)C[C@@H]4C[C@H](O)CC[C@]4(C)[C@H]3C[C@H](O)[C@]12C | > 100 |
| CC(=O)NC1C(OCc2ccccc2)OC(CO)C(O)C1OCC(=O)N[C@@H](C)C(=O)N[C@H](CCC(=O)NCCCNc1c2ccccc2nc2cccc([N+](=O)[O-])c12)C(N)=O (stereo not given in full) | 0.0835 |
| COc1ccc(-c2nc(SCC(=O)NNC(=S)Nc3ccccc3)[nH]c2-c2ccc(OC)cc2)cc1 | 39.3 |
| O=C(O)c1ccccc1CC(Cc1ccc2c(c1)CCC2)C(=O)O (stereo not given) | > 100 |
| Cn1c(SCc2ccc(F)cc2)nnc1C12CC3CC(CC(C3)C1)C2 | > 100 |
